The record followed here is patent US12350252B2, “Water-soluble cannabinoid formulations and methods of their making” (SOLUSCIENCE, LLC, priority 2019, dated 2025).

This data set can be described thus: Accelerated stability study of 2% CBD colloidal dispersion (cannabinoid profile, appearance, pH, microbial growth). In kind it is physicochemical. As to the method: The solid dispersion included 20% CBD, 75% of Poloxamer 407 and 5% ascorbic acid was dissolved in distilled water to produce the homogenic, stable colloidal dispersion of cannabidiol at 2% (20 mg/mL) by weight of the formulation.

The mark [1] stands for this setting: Day # 0, content in colloidal dispersion of cannabidiol at 2% (20 mg/mL).
[2] abbreviates: Day # 90, stored at 100° F. (38° C.), content in colloidal dispersion of cannabidiol at 2%.

`CCCCCc1cc(O)c2c(c1)OC(C)(C)c1ccc(C)cc1-2` [Cannabinol (CBN), Cannabinol]: under setting [1], the “Cannabinoid profile Result” value is 0.3 mg/g and the “Cannabinoid profile Result (%)” value is recorded as 0.03%.
Take `C=C(C)[C@@H]1CCC(C)=C[C@H]1c1c(O)cc(CCCCC)cc1O` [Cannabidiol (CBD), Cannabidiol]: under setting [1], the “Cannabinoid profile Result” value came to 20.2 mg/g and the “Cannabinoid profile Result (%)” value was 2.02%. Also, under setting [2], the “Cannabinoid profile Result” value stood at 21.9 mg/g and the “Cannabinoid profile Result (%)” value turned out to be 2.19%.
On to `CCCCCc1cc(O)c(C/C=C(\C)CCC=C(C)C)c(O)c1` [Cannabigerol (CBG), Cannabigerol], for which, under setting [1], the “Cannabinoid profile Result” value stood at 0.3 mg/g and the “Cannabinoid profile Result (%)” value was 0.03%.
